Reference: patent publication US12691070B2, “Cationic lipids and preparation method thereof” (RiboX Therapeutics HK Limited, priority 2023, dated 2026)

Assays:
MCP-I = MCP-I cytokine elevation in serum; format: in vivo; conditions: cirRNA (SEQ ID NO: 1) LNPs, mice
Method: 6-8 week old, female BALB/C mice were injected with 0.5 mg*kg-1 of RNA LNPs by intravenous injection. At 2 and 24 hours post injection, animals were bled and sera concentrations of MCP-I were determined by an immunoassay (Luminex).

[1] = LNP size and polydispersity index (PDI) by dynamic light scattering; format: physicochemical; conditions: for Size: in nm (unit assumed)
How it was run: (§1)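 Dynamic light scattering and zeta potential measurements were run on PBS-dialyzed LNPs, which had been formed by microfluidic mixing at 12 ml/min with final lipid at 1.5 mM to 6 mM. RNA content and percent encapsulation were determined by Ribogreen with and without Triton X-100.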

[2] = test system: Aspartate Aminotransferase (AST); assay: Liver enzyme elevation in serum, AST; format: in vivo; conditions: cirRNA (SEQ ID NO: 1) LNPs, BALB/C mice, intravenous 0.5 MPK
Method: (§2) 6-8 week old, female BALB/C mice were injected with 0.5 mg*kg-1 of RNA LNPs by intravenous injection. At 2 and 24 hours post injection, animals were bled and sera concentrations of Alanine Aminotransferase (ALT) and Aspartate Aminotransferase (AST) were determined by a blood chemistry analyzer.

BALB/C mice [3] = assay: In vivo expression, whole-body luminescence (IVIS)
Method: 6-8 week old, female BALB/C mice were injected with 0.05 mg*kg-1 of RNA-LNPs encoding for firefly-luciferase by intravenous injection. At 6 hours post injection, animals were intraperitoneally injected with 15 mg/ml of Luciferin substrate and whole-body luminescence was determined by a bioluminescent in vivo imaging system (IVIS).

BALB/C mice [4] = assay: Local tolerance determination by footpad injection; format: in vivo; conditions: cirRNA (SEQ ID NO: 1) LNP, 0.175 mg*kg-1 subcutaneous into the footpad, 24 hours post minus prior
Method: 6-8 week old, female BALB/C mice were injected with 0.175 mg*kg-1 RNA LNPs by subcutaneous injection into the footpad. Prior to, and 24 hours post injections, injected footpad thickness was determined by a caliper.

[5] = RNA encapsulation efficacy by Quant-IT Ribogreen kit; format: physicochemical; conditions: for Encapsulation Efficiency %: LNP with cirRNA (SEQ ID NO: 1); for Encapsulation Efficiency: LNP with mRNA (SEQ ID NO: 2)
How it was run: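 Encapsulation efficacy came from Ribogreen fluorescence of LNPs compared with Triton X-100-lysed LNPs. The particles carried luciferase-encoding circular or linear RNA at an ionizable lipid:ribonucleotide ratio of 15 or 6.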

[6] = test system: Alanine Aminotransferase (ALT); assay: Liver enzyme elevation in serum, ALT; format: in vivo; conditions: cirRNA (SEQ ID NO: 1) LNPs, BALB/C mice, intravenous 0.5 MPK
Method: as §2

RAW 264.7 cells [7] = assay: In vitro expression of firefly-luciferase, RAW 264.7; format: cell-based
How it was run: (§3)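 Transfection used 100 ng/mL luciferase-encoding RNA-LNPs; activity in lysates was determined at 72 h.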

[8] = LNP zeta potential (Zetasizer); format: physicochemical
How it was run: as §1

Hep G2 cells [9] = assay: In vitro expression of firefly-luciferase, Hep G2; format: cell-based
How it was run: as §3

RAW 264.7 cells [10] = assay: In vitro toxicity (CellTiter-Glo cell viability), RAW 264.7; format: cell-based;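 further: percent of untreated cells luminescence signal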
How it was run: (§4)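 Toxicity of RNA-LNPs (1 μg/mL) is reported as cell viability, calculated from CellTiter-Glo luminescence measured at 72 hours after transfection.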

Hep G2 cells [11] = assay: In vitro toxicity (CellTiter-Glo cell viability), Hep G2; format: cell-based;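 further: percent of untreated cells luminescence signal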
How it was run: as §4

[12] = cirRNA (SEQ ID NO: 1) LNPs, BALB/C mice
[13] = mRNA (SEQ ID NO: 2) LNP, 0.05 mg*kg-1 intravenous, 6 hours post injection
[14] = cirRNA (SEQ ID NO: 1) LNPs, firefly-luciferase luminescence, RAW 264.7 cells
[15] = mRNA (SEQ ID NO: 2) LNP, 100 ng/mL, 72 hours post transfection, luciferase activity
[16] = cirRNA (SEQ ID NO: 1) LNPs, firefly-luciferase luminescence, Hep G2 cells
[17] = cirRNA (SEQ ID NO: 1) LNPs, RAW 264.7 cells
[18] = mRNA (SEQ ID NO: 2) LNP, 1 μg/mL, 72 hours post transfection
[19] = cirRNA (SEQ ID NO: 1) LNPs, Hep G2 cells

| SMILES | PDI ([1]; LNP with cirRNA (SEQ ID NO: 1)) | Size ([1]; LNP with cirRNA (SEQ ID NO: 1)) | PDI ([1]; LNP with mRNA (SEQ ID NO: 2)) | Size ([1]; LNP with mRNA (SEQ ID NO: 2)) | In vivo Expression (Whole Body) (BALB/C mice [3]; [12]) | In vivo Expression (Whole Body) (BALB/C mice [3]; [13]) | Encapsulation Efficiency % [5] [%] | Encapsulation Efficiency [5] [%] | In vitro Expression RAW (RAW 264.7 cells [7]; [14]) | In vitro Expression RAW (RAW 264.7 cells [7]; [15]) | Zeta (mV) ([8]; LNP with cirRNA (SEQ ID NO: 1)) | Zeta (mV) ([8]; LNP with mRNA (SEQ ID NO: 2)) | In vitro Expression HepG2 (Hep G2 cells [9]; [16]) | In vitro Expression HepG2 (Hep G2 cells [9]; [15]) | In vitro Viability RAW (RAW 264.7 cells [10]; [17]) [%] | In vitro Viability RAW (RAW 264.7 cells [10]; [18]) [%] | In vitro Viability HepG2 (Hep G2 cells [11]; [19]) [%] | In vitro Viability HepG2 (Hep G2 cells [11]; [18]) [%] | also measured |
| --- | --- | --- | --- | --- | --- | --- | --- | --- | --- | --- | --- | --- | --- | --- | --- | --- | --- | --- | --- |
| CCCCCCCCC(CCCCCC)C(=O)OCCCCCCCCN(CCCCCCCCOC(=O)C(CCCCCC)CCCCCCCC)CCOC(=O)NCCN(C)C (stereo not drawn) [Lipid 6, 10-(8-((2-hexyldecanoyl)oxy)octyl)-2-methyl-6-oxo-7-oxa-2,5,10-triazaoctadecan-18-yl 2-hexyldecanoate] | 0.06 | 87.2 | 0.03302 | 106.5 | 1.21E+09 | 1.91E+09 | 96 | 93.16 | 1.11E+07 | 1.21E+07 | −2.24 | 4.201 | 1.82E+08 | 2.28E+08 | 100 | 77 | 89 | 113 | MCP-I in Sera 2 hours After 0.5 MPK Injection (MCP-I): 7009.50 pg/mL; MCP-I in Sera 24 hours After 0.5 MPK Injection (MCP-I): 1653.42 pg/mL; AST in Sera (IU/L) 2 hours After 0.5 MPK Injection [2]: 316.00 IU/L; AST in Sera (IU/L) 24 hours After 0.5 MPK Injection [2]: 411.00 IU/L; Footpad Thickness (24 h−0 h, mm) (BALB/C mice [4]): 0.44 mm; ALT in Sera (IU/L) 2 hours After 0.5 MPK Injection [6]: 99.33 IU/L; ALT in Sera (IU/L) 24 hours After 0.5 MPK Injection [6]: 181.67 IU/L |
| CCCCCCCCC(CCCCCC)C(=O)OCCCCCCCCN(CCCCCCCCCCC(=O)OCCCCCC)CCOC(=O)NCCN(C)C (stereo not drawn) [Lipid 43, hexyl 10-(8-((2-hexyldecanoyl)oxy)octyl)-2-methyl-6-oxo-7-oxa-2,5,10-triazahenicosan-21-oate] | 0.04 | 91.2 | 0.09046 | 67.1 | 6.22E+08 | 1.98E+08 | 95 | 88 | 1.10E+05 | 9.60E+04 | 1.26 | 12.6 | 1.75E+04 | 1.33E+06 | 97 | 88 | 97 | 97 | MCP-I in Sera 2 hours After 0.5 MPK Injection (MCP-I): 5561.83 pg/mL; MCP-I in Sera 24 hours After 0.5 MPK Injection (MCP-I): 17.57 pg/mL; AST in Sera (IU/L) 2 hours After 0.5 MPK Injection [2]: 135.60 IU/L; AST in Sera (IU/L) 24 hours After 0.5 MPK Injection [2]: 88.97 IU/L; Footpad Thickness (24 h−0 h, mm) (BALB/C mice [4]): 0.33 mm; ALT in Sera (IU/L) 2 hours After 0.5 MPK Injection [6]: 57.07 IU/L; ALT in Sera (IU/L) 24 hours After 0.5 MPK Injection [6]: 41.53 IU/L |
| CCCCCCCCC(CCCCCC)C(=O)OCCCCCCCCN(CCCCCCCCOC(=O)C(CCCCCC)CCCCCCCC)CCCOC(=O)NCCN1CCC1 (stereo not drawn) [Lipid 382] | 0.2452 | 145.3 | – | – | 4.22E+06 | – | 94 | – | 5.69E+04 | – | 4.75 | – | 3.97E+05 | – | 84 | – | 42 | – | – |
| CCCCCCCCC(CCCCCC)C(=O)OCCCCCCCCN(CCCCCCCCOC(=O)C(CCCCCC)CCCCCCCC)CCCNCCN(C)C (stereo not drawn) [Lipid 384] | 0.2423 | 135.9 | – | – | 1.15E+07 | – | 96 | – | 3.15E+05 | – | 8.213 | – | 2.57E+06 | – | 88 | – | 81 | – | – |
| CCCCCCCCC(CCCCCC)C(=O)OCCCCCCCCN(CCCCCCCCOC(=O)C(CCCCCC)CCCCCCCC)CCCNCCCN(CC)CC (stereo not drawn) [Lipid 385] | 0.2458 | 159 | – | – | 1.79E+06 | – | 94 | – | 1.37E+04 | – | 11.28 | – | 1.31E+05 | – | 80 | – | 74 | – | – |
| CCCCC/C=C\C/C=C\CCCCCCCCN(CCCCCCCC/C=C\C/C=C\CCCCC)CCOC(=O)CCCN(C)C [Lipid A, reference compound] | 0.2901 | 145.2 | 0.2719 | 118 | – | 2.13E+08 | 74 | 83.95 | – | 5.86E+06 | 1.916 | 10.76 | 1.90E+06 | 3.08E+07 | – | 96 | – | 108 | – |
| CCCCC/C=C\C/C=C\CCCCCCCCN(CCCCCCCC/C=C\C/C=C\CCCCC)CCOC(=O)[C@@H](N)Cc1c[nH]cn1 [Lipid B, reference compound] | 0.2623 | 93.61 | 0.2472 | 80.28 | – | 3.42E+08 | 88 | 86.87 | – | 1.32E+05 | 3.811 | 0.02157 | 8.71E+05 | 4.21E+05 | – | 92 | – | 97 | – |
